Measured values reported in PMC12332667, “Role of Structural Modifications in Peptidomimetic Compounds as Potential Antimicrobial Agents against Staphylococcus aureus and Streptococcus pyogenes: Balancing Bioavailability, Safety, and Antimicrobial Activity” (ACS Omega, 2025).
Converted amounts (≈) assume the structure as drawn.

How the values were obtained:
[1] = system: K. pneumoniae ATCC 700603; assay: MIC/MBC broth microdilution, K. pneumoniae; format: cell-based
Description: (§1) S. aureus (ATCC 29213),S. pyogenes (ATCC 19615),Streptococcus agalactiae (ATCC 27956),Escherichia coli (ATCC 25922),Proteus vulgaris (ATCC 6896),K. pneumoniae (ATCC 700603) andP. aeruginosa (ATCC 10145) reference strains, as well asStaphylococcus cohnii, Enterococcus faecalis, Staphylococcus schleiferi, Staphylococcus intermedius and Streptococcus mutans clinical isolates, were used to test the antibacterial activity of the peptidomimetics. Bacteria were aerobically cultured for 18 h at 37 °C in plates with sterilized brain heart infusion (BHI) broth (Sigma-Aldrich, USA) media mixed with bacteriological agar (Sigma-Aldrich, USA) using the streak plate method. After 18 h, BHI broth was inoculated to 0.5 on the McFarland scale and diluted to approximately 10^5 CFU/mL. To achieve a final stock concentration of 1024 μg/mL, the peptidomimetics were dissolved in sterile water, and 5–10% of absolute ethanol or dimethyl sulfoxide (DMSO) was added. The antibacterial activities were determined by using the standard broth microdilution method of the National Committee for Clinical Laboratory Standards. The process involved adding serially diluted peptidomimetics to consecutive wells of a 96-well microtiter plate (Brand, Germany) holding media with microorganisms. The inoculated plates treated with peptides were then placed in an incubator at 37 °C for 18 h. The MIC value was determined as the lowest concentration of peptidomimetic at which there was no obvious growth (equal or more than 90% of the untreated sample). […] The lowest concentration yielding growth in no more than 3 colonies, corresponding to at least a 99.9% kill rate, was taken as MBC. Each biological replicate included control wells with the addition of water, DMSO, and ethanol as respective solvent controls. All experiments were conducted with consistent adherence to growth and sterility controls and were performed at least in technical triplicate with three biological repeats.

E. coli ATCC 25922 = assay: MIC/MBC broth microdilution, E. coli; format: cell-based, Escherichia coli
Description: as §1

S. schleiferi c.i. = assay: MIC/MBC broth microdilution, S. schleiferi; format: cell-based, Staphylococcus schleiferi
Description: as §1

[2] = system: human dermal fibroblast cell line (46BR.1N); assay: XTT cell proliferation assay, fibroblasts; format: cell-based
Description: (§2) In our study, we used two distinct cell types: immortalized human HaCaT keratinocytes (DKFZ, Heidelberg, Germany) and a human dermal fibroblast cell line (46BR.1N). […] Cultures were maintained in a humidified atmosphere with 5% CO2 at 37 °C in 25 cm^2 culture flasks with the medium replenished every 2 days. The condition of the cells was monitored using optical microscopy. […] After 24 h of incubation, the medium was replaced with serum-free HG-DMEM containing appropriate concentrations of peptidomimetics. All solutions used in the experiments were prepared with double-distilled water or with the addition of ethanol under sterile conditions to ensure compatibility with the conditions of the bacteriological assay. For 72 h of incubation, half of the medium was replaced with fresh medium after 48 h, and cells were stimulated with peptides for a second time. The XTT cell proliferation assay was then performed according to the manufacturer’s instructions (Roche, Switzerland). Cells were treated with the peptides for either 48 or 72 h, followed by the addition of XTT reagent, and the plates were then incubated at 37 °C in a 5% CO2 environment for 4 h. Plate readings were taken using a standard plate reader at a wavelength of 490 nm (OD = 490 nm). […] Statistical significance was determined with a Mann–Whitney U test with statistical significance p ≤ 0.05. Analysis was performed with Statistica software, and graphs were prepared in GraphPad Prism.

S. cohnii c.i. = assay: MIC/MBC broth microdilution, S. cohnii; format: cell-based, Staphylococcus cohnii
Description: as §1

S. agalactiae ATCC 27956 = assay: MIC/MBC broth microdilution, S. agalactiae; format: cell-based, Streptococcus agalactiae; conditions: S. agalactiae
Description: as §1

[3] = system: immortalized human keratinocytes (HaCaT); assay: LDH cytotoxicity test, keratinocytes; format: cell-based; conditions: 48 h
Description: (§3) In our study, we used two distinct cell types: immortalized human HaCaT keratinocytes (DKFZ, Heidelberg, Germany) and a human dermal fibroblast cell line (46BR.1N). […] Cultures were maintained in a humidified atmosphere with 5% CO2 at 37 °C in 25 cm^2 culture flasks with the medium replenished every 2 days. The condition of the cells was monitored using optical microscopy.
(§4) Cell death in immortalized human keratinocytes (HaCaT) and fibroblasts (46BR.1N) was measured by quantifying the lactate dehydrogenase (LDH) activity using a commercial kit (Roche, Switzerland). Cells were seeded in 96-well plates at a density of 5000 cells per well in DMEM high glucose medium supplemented with 10% FBS. After 24 h of incubation, the medium was replaced with serum-free medium containing various concentrations of peptidomimetics (50, 100, and 150 μg/mL). After 48 h, supernatants were collected for LDH analysis. Plate readings were taken spectrophotometrically using a 450 nm wavelength. Cell death measurements were normalized to an untreated control (0%), with 1% Triton X-100 detergent used as a positive control to induce maximum LDH release, indicating maximal cytotoxicity. Statistical significance was determined with a Mann–Whitney U test with a statistical significance p ≤ 0.05. Analysis was performed with Statistica software (Krakow, Poland) and graphs were prepared in GraphPad Prism (Boston, USA).

S. mutans c.i. = assay: MIC/MBC broth microdilution, S. mutans; format: cell-based, Streptococcus mutans
Description: as §1

P. aeruginosa ATCC 10145 = assay: MIC/MBC broth microdilution, P. aeruginosa; format: cell-based
Description: as §1

S. intemrdius c.i. = assay: MIC/MBC broth microdilution, S. intermedius; format: cell-based, Staphylococcus intermedius
Description: as §1

P. vulgaris ATCC 6896 = assay: MIC/MBC broth microdilution, P. vulgaris; format: cell-based, Proteus vulgaris
Description: as §1

[4] = system: immortalized human HaCaT keratinocytes; assay: XTT cell proliferation assay, keratinocytes; format: cell-based
Description: as §2

E. faecalis c.i. = assay: MIC/MBC broth microdilution, E. faecalis; format: cell-based, Enterococcus faecalis
Description: as §1

fibroblasts (46BR.1N) = assay: LDH cytotoxicity test, fibroblasts; format: cell-based; conditions: 48 h
Description: as §3, §4

S. aureus ATCC 43300 = assay: MIC/MBC broth microdilution, S. aureus; format: cell-based, Staphylococcus aureus; conditions: for MBC / MIC: S. aureus
S. pyogenes ATCC 19615 = assay: MIC/MBC broth microdilution, S. pyogenes; format: cell-based, Streptococcus pyogenes; conditions: S. pyogenes
Description: as §1

[5] = XTT, 48 and 72 h, 0.01–150 μg/mL
[6] = up to 150 μg/mL, A-193 and A-179 after 48 h

## CC(C)C[C@H](NC(=O)[C@H](CCCNC(=N)N)NC(=O)OCc1ccccc1)C(=O)N[C@H](CNC(=O)C(=Cc1ccccc1)c1ccccc1)C(C)C [Compound A-164]
[1]; H2O
  MIC: > 512 µg/mL
[1]; water additive DMSO
  MIC: > 512 µg/mL
[1]; water additive EtOH
  MIC: > 512 µg/mL
E. coli ATCC 25922; H2O
  MIC: > 512 µg/mL
E. coli ATCC 25922; water additive DMSO
  MIC: > 512 µg/mL
E. coli ATCC 25922; water additive EtOH
  MIC: > 512 µg/mL
S. schleiferi c.i.; H2O
  MBC: 16 µg/mL (≈ 22.5 µM)
  MIC: 8 µg/mL (≈ 11.2 µM)
S. schleiferi c.i.; water additive DMSO
  MBC: 32 µg/mL (≈ 44.9 µM)
  MIC: 16 µg/mL (≈ 22.5 µM)
S. schleiferi c.i.; water additive EtOH
  MBC: 8 µg/mL (≈ 11.2 µM)
  MIC: 4 µg/mL (≈ 5.62 µM)
[2]; 48 h, 50, 100 and 150 μg/mL
  viability: over 20%
[2]; XTT, 50 μg/mL
  proliferation relative to control at 50 μg/mL: 50%
[2]; [5]
  effect on proliferation, in words: negative impact
[2]; [6]
  antiproliferative effect (decrease vs control): up to 50%
S. cohnii c.i.; water additive DMSO
  MBC: 32 µg/mL (≈ 44.9 µM)
  MIC: 16 µg/mL (≈ 22.5 µM)
S. cohnii c.i.; water additive EtOH
  MIC: 32 µg/mL (≈ 44.9 µM)
S. agalactiae ATCC 27956; H2O
  MBC: 16 µg/mL (≈ 22.5 µM)
  MIC: 8 µg/mL (≈ 11.2 µM)
S. agalactiae ATCC 27956; water additive DMSO
  MBC: 32 µg/mL (≈ 44.9 µM)
  MIC: 16 µg/mL (≈ 22.5 µM)
S. agalactiae ATCC 27956; water additive EtOH
  MBC: 8 µg/mL (≈ 11.2 µM)
  MIC: 4 µg/mL (≈ 5.62 µM)
[3]; 50-150 μg/mL
  cytotoxicity (LDH), in words: cytotoxic effects across all of the tested concentrations
[3]; LDH
  concentration at which cytotoxic effect starts: 50 µg/mL
S. mutans c.i.; H2O
  MIC: > 512 µg/mL
S. mutans c.i.; water additive DMSO
  MIC: > 512 µg/mL
S. mutans c.i.; water additive EtOH
  MIC: > 512 µg/mL
P. aeruginosa ATCC 10145; H2O
  MIC: > 512 µg/mL
P. aeruginosa ATCC 10145; water additive DMSO
  MIC: > 512 µg/mL
P. aeruginosa ATCC 10145; water additive EtOH
  MIC: > 512 µg/mL
S. intemrdius c.i.; H2O
  MBC: 32 µg/mL (≈ 44.9 µM)
  MIC: 16 µg/mL (≈ 22.5 µM)
S. intemrdius c.i.; water additive DMSO
  MBC: 8 µg/mL (≈ 11.2 µM)
  MIC: 4 µg/mL (≈ 5.62 µM)
S. intemrdius c.i.; water additive EtOH
  MBC: 16 µg/mL (≈ 22.5 µM)
  MIC: 8 µg/mL (≈ 11.2 µM)
P. vulgaris ATCC 6896; H2O
  MIC: > 512 µg/mL
P. vulgaris ATCC 6896; water additive DMSO
  MIC: > 512 µg/mL
P. vulgaris ATCC 6896; water additive EtOH
  MIC: > 512 µg/mL
[4]; XTT, 50 μg/mL
  proliferation relative to control at 50 μg/mL: 50%
[4]; [5]
  effect on proliferation, in words: negative impact
[4]; [6]
  antiproliferative effect (decrease vs control): up to 50%
E. faecalis c.i.; H2O
  MIC: 32 µg/mL (≈ 44.9 µM)
E. faecalis c.i.; water additive DMSO
  MBC: 32 µg/mL (≈ 44.9 µM)
  MIC: 16 µg/mL (≈ 22.5 µM)
E. faecalis c.i.; water additive EtOH
  MIC: 32 µg/mL (≈ 44.9 µM)
Fibroblasts (46BR.1N); 50-150 μg/mL
  cytotoxicity (LDH), in words: cytotoxic effects across all of the tested concentrations
Fibroblasts (46BR.1N); LDH
  concentration at which cytotoxic effect starts: 50 µg/mL
S. aureus ATCC 43300; H2O
  MBC: 16 µg/mL (≈ 22.5 µM)
  MIC: 8 µg/mL (≈ 11.2 µM)
S. aureus ATCC 43300; water additive DMSO
  MBC: 16 µg/mL (≈ 22.5 µM)
  MIC: 8 µg/mL (≈ 11.2 µM)
S. aureus ATCC 43300; water additive EtOH
  MBC: 16 µg/mL (≈ 22.5 µM)
  MIC: 8 µg/mL (≈ 11.2 µM)
S. aureus ATCC 43300; additive not stated
  MIC value for S. aureus: 8 µg/mL
S. pyogenes ATCC 19615; H2O
  MBC: 16 µg/mL (≈ 22.5 µM)
  MIC: 8 µg/mL (≈ 11.2 µM)
S. pyogenes ATCC 19615; water additive DMSO
  MBC: 16 µg/mL (≈ 22.5 µM)
  MIC: 8 µg/mL (≈ 11.2 µM)
S. pyogenes ATCC 19615; water additive EtOH
  MBC: 8 µg/mL (≈ 11.2 µM)
  MIC: 4 µg/mL (≈ 5.62 µM)
